Reference: PMC7156724, “Potent BRD4 inhibitor suppresses cancer cell-macrophage interaction” (Nature Communications, 2020)
Several values for one entry are separate records, joined by “and”; a condition that tells them apart may be missing. Identical values can stand only once. Like-named read-outs stand apart in the source and are kept apart here.

What was measured:
[1] = tested on: A375 melanoma cells; experiment: AlamarBlue assay, A375; assay type: cell-based, human; conditions: for Cellular activity in melanoma cells (A375), alamarBlue: Fig.1g, replicates; for IC50: read-out: IC50, cellular activity in A375 (alamarBlue)
Procedure: (§1) 3. AlamarBlue assay. AlamarBlue was made by resazurin sodium salt (Sigma, Cat
(§2) # 199303) dissolved in PBS.
(§3) NCI-H211, MDA-MB231 and A375 cells were plated in 96-well plates at approximately 30% confluence and left overnight to adhere. In the following day, […]
(§4) of treatment, 10 μl AlamarBlue reagent (0.3 mg/ml) was added to each well, and after 18h, the florescence intensity in each well was measured using a top-reading fluorescent plate reader with excitation at 530 nm and emission at 590 nm. […]

[2] = molecular target: T1, BRD4 (BD1+BD2) (Homo sapiens, UniProt O60885); experiment: BRD4 (BD1+BD2) TR-FRET binding assay; conditions: for Biochemical activity against BRD4 (BD1 + BD2): Fig.1d, replicates
T1 construct: purchased BPS 32612
Text: 2. BRD4 binding assay. The inhibitory effects of NHWD-530, NHWD-540, NHWD- […]
(BPS, Cat # 32612) per manufacturer’s instructions. […]

[3] = tested on: NCI-H211 small cell lung cancer (SCLC) cells; experiment: AlamarBlue assay, NCI-H211; assay type: cell-based; conditions: for Cellular activity in SCLCs (H211), alamarBlue: Fig.1e, replicates
Procedure: as §1, §2, §3, §4

[4] = tested on: MDA-MB231 triple negative breast cancer (TNBC) cells; experiment: AlamarBlue assay, MDA-MB231; assay type: cell-based, human; conditions: for Cellular activity in TNBCs (MDA-MB231), alamarBlue: Fig.1f, replicates
Procedure: as §1, §2, §3, §4

`CCNC(=O)C[C@@H]1N=C(c2ccc(Cl)cc2)c2cc(OC)ccc2-n2c(C)nnc21` [GSK-525762] was tested, and the “Cellular activity in melanoma cells (A375), alamarBlue” value (shortened to “Cellular activity in melanoma cells”) ([1]; concentration(nM) 0.21442, listed as GSK-525672) was 0.7 and 0.7152, the “Cellular activity in melanoma cells” value ([1]; concentration(nM) 0.31236, listed as GSK-525672) was 2.411 and 2.845 and the “Cellular activity in melanoma cells” value ([1]; concentration(nM) 0.4103, listed as GSK-525672) was 1.577 and 2.366. The “Cellular activity in melanoma cells” value ([1]; concentration(nM) 0.6032, listed as GSK-525672) was 8.146 and 9.5447, the “Cellular activity in melanoma cells” value ([1]; concentration(nM) 1.2043, listed as GSK-525672) was 25.5205 and 30.3178 and the “Cellular activity in melanoma cells” value ([1]; concentration(nM) 1.8024, listed as GSK-525672) was 60.9618 and 63.2464. The “Cellular activity in melanoma cells” value ([1]; concentration(nM) 2.4, listed as GSK-525672) was 99.5135 and 98.5975, the “Cellular activity in melanoma cells” value ([1]; concentration(nM) 3, listed as GSK-525672) was 100.155 and 100.899 and the IC50 ([1]; Homo sapiens, A-375, nM printed in b8, the picture prints no unit) was 35.6 nM.
In the case of `COc1cc2c(cc1-c1c(C)noc1C)ncc1[nH]c(=O)n([C@H](C)c3ccccn3)c12` [I-BET151], the “Cellular activity in melanoma cells” value ([1]; concentration(nM) 0.21442) is reported as 0.1541 and 0.2687, the “Cellular activity in melanoma cells” value ([1]; concentration(nM) 0.31236) is reported as 1.39 and 1.537 and the “Cellular activity in melanoma cells” value ([1]; concentration(nM) 0.4103) is reported as 1.399 and 1.952. For the same compound, the “Cellular activity in melanoma cells” value ([1]; concentration(nM) 0.6032) was 7.8413 and 3, the “Cellular activity in melanoma cells” value ([1]; concentration(nM) 1.2043) was 31.4642 and 32.5943 and the “Cellular activity in melanoma cells” value ([1]; concentration(nM) 1.8024) was 46.9054 and 45.198. For the same compound, the “Cellular activity in melanoma cells” value ([1]; concentration(nM) 2.4) was 80.0356 and 78.8893, the “Cellular activity in melanoma cells” value ([1]; concentration(nM) 3) was 99.9805 and 100.846 and the IC50 ([1]; nM) was 55.5 nM.
`Cc1nnn(C)c1-c1cnc2c3c4c(ccc3n([C@H](c3ccccc3)C3CCOCC3)c2c1)cnn4C` [NHWD-860] was tested, and the “Biochemical activity against BRD4 (BD1 + BD2)” value (shortened to “Biochemical activity”) ([2]; concentration(nM) 0.0021442) was 1.269 and 4.138, the “Biochemical activity” value ([2]; concentration(nM) 0.061236) was 4.399 and 1.862 and the “Biochemical activity” value ([2]; concentration(nM) 0.103) was 3 and 0.4387. The “Biochemical activity” value ([2]; concentration(nM) 0.59176) was 12.3903 and 19.5044, the “Biochemical activity” value ([2]; concentration(nM) 1.19382) was 74.9941 and 70.1565 and the “Biochemical activity” value ([2]; concentration(nM) 1.79588) was 100.036 and 99.751. The “Biochemical activity” value ([2]; concentration(nM) 2.39794) was 101.174 and 100.605, the “Biochemical activity” value ([2]; concentration(nM) 3) was 100.889 and 100.32 and the IC50 ([2]; average IC50, nM, read-out: IC50, biochemical activity against BRD4 (BD1 + BD2)) was 9.33 ± 0.97 nM. The “Cellular activity in SCLCs (H211), alamarBlue” value (from here on “Cellular activity in SCLCs”) ([3]; concentration 0.0169701) was 1.74 and 11.45, the “Cellular activity in SCLCs” value ([3]; concentration 0.0398488) was 4.56 and 9.08 and the “Cellular activity in SCLCs” value ([3]; concentration 0.137272) was 4.2 and 14.84. The “Cellular activity in SCLCs” value ([3]; concentration 0.614394) was 15.53 and 29.79, the “Cellular activity in SCLCs” value ([3]; concentration 1.09152) was 68.35 and 72.54 and the “Cellular activity in SCLCs” value ([3]; concentration 1.56864) was 88.44 and 89.49. For the same compound, the “Cellular activity in SCLCs” value ([3]; concentration 2.04576) was 90.64 and 90.52, the “Cellular activity in SCLCs” value ([3]; concentration 3) was 89.32 and 90.99 and the “Cellular activity in SCLCs” value ([3]; concentration column prints 2.52288) was 89.13 and 90.21. For the same compound, the IC50 ([3]; Homo sapiens, NCI-H211, 72 h, 72 h treatment, nM, read-out: IC50, cellular activity in NCI-H211 (alamarBlue)) was 8.06 ± 0.91 nM, the “Cellular activity in TNBCs (MDA-MB231), alamarBlue” value (“Cellular activity in TNBCs” for short) ([4]; concentration 0.15) was 14.34 and 13.82 and the “Cellular activity in TNBCs” value ([4]; concentration 0.6) was 35.72 and 34.62. The “Cellular activity in TNBCs” value ([4]; concentration 1) was 67.92 and 71.9, the “Cellular activity in TNBCs” value ([4]; concentration 1.5) was 82.83 and 82.68 and the “Cellular activity in TNBCs” value ([4]; concentration 2) was 87.1 and 88.94. For the same compound, the “Cellular activity in TNBCs” value ([4]; concentration 2.5) was 87.8 and 87.94, the “Cellular activity in TNBCs” value ([4]; concentration 3) was 90.46 and 89.59 and the “Cellular activity in TNBCs” value ([4]; concentration -0.3) was 5.89 and 8.33. For the same compound, the “Cellular activity in TNBCs” value ([4]; concentration -0.9) was 3.7 and 7.12 and the IC50 ([4]; Homo sapiens, MDA-MB-231, 72 h, 72 h treatment, nM, read-out: IC50, cellular activity in MDA-MB231 (alamarBlue)) was 7.08 ± 0.85 nM.
